In brackets after ≈: the same amount, converted by molar mass. Like-named read-outs stand apart in the source and are kept apart here.
Key:
B. thailandensis E264 = test: microbe, parasite or virus in culture; format: cell-based, Burkholderia thailandensis; details: Burkholderia thailandensis, E264, read-out: MIC B. thailandensis E264
E. coli ATCC 25922 = test: MIC, selected panel of Gram-positive and Gram-negative strains (Example 5); format: cell-based, Escherichia coli
P. aeruginosa ATCC 27853 = test: as above; format: cell-based
[1] = system: S. aureus ATCC 43300 (MRSA, FQ-S); test: as above; format: cell-based, Staphylococcus aureus
[2] = system: S. aureus BAA-1556 (USA300-Type MRSA, FQ-R); test: as above; format: cell-based, Staphylococcus aureus
S. aureus ATCC 25923 = test: as above; format: cell-based; details: Staphylococcus aureus, ATCC25923, read-out: MIC S. aureus ATCC 25923
A. baumannii ATCC 19606 = test: as above; format: cell-based, Acinetobacter baumannii; details: Acinetobacter baumannii, ATCC19606, read-out: MIC A. baumannii ATCC 19606
[3] = Staphylococcus aureus; read-out: MIC S. aureus BAA-1556 (USA300-Type MRSA, FQ-R)
[4] = Escherichia coli, ATCC25922, read-out: MIC E. coli ATCC 25922
[5] = Pseudomonas aeruginosa, ATCC27853, read-out: MIC P. aeruginosa ATCC 27853
[6] = Staphylococcus aureus, read-out: MIC S. aureus ATCC 43300 (MRSA, FQ-S)
[7] = Staphylococcus aureus, read-out: MIC S. aureus BAA-1556 (USA300-Type MRSA, FQ-R)

Row | Structure (SMILES) | MIC (B. thailandensis E264) [mg/L] | MIC (E. coli ATCC 25922; Escherichia coli, ATCC25922; read-out: MIC E. coli ATCC 25922) [mg/L] | MIC (P. aeruginosa ATCC 27853; Pseudomonas aeruginosa, ATCC27853; read-out: MIC P. aeruginosa ATCC 27853) [mg/L] | MIC ([1]; Staphylococcus aureus; read-out: MIC S. aureus ATCC 43300 (MRSA, FQ-S)) [mg/L] | MIC [2, 3] [mg/L] | MIC (E. coli ATCC 25922; [4]) [mg/L] | MIC (P. aeruginosa ATCC 27853; [5]) [mg/L] | MIC (S. aureus ATCC 25923) [mg/L] | MIC [1, 6] [mg/L] | MIC [2, 7] [mg/L] | MIC (A. baumannii ATCC 19606) [mg/L]
1 | C[C@H]1c2cccc(O)c2C(=O)C2=C(O)[C@]3(O)C(=O)C(C(N)=O)=C(O)[C@@H](N(C)C)[C@@H]3[C@@H](O)[C@@H]21 [Doxycycline, reference compound] | 2 (≈ 4.5 µM) | 1 (≈ 2.25 µM) | > 8 | 0.25 (≈ 0.563 µM) | 4 (≈ 9 µM) |  |  |  |  |  | 
2 | Cc1c(-c2ccc(CN)s2)ccn2c(=O)c(C(=O)[O-])cc(C3CC3)c12.[K+] [Compound 13K salt, potassium 8-(5-(aminomethyl)thiophen-2-yl)-1-cyclopropyl-9-methyl-4-oxo-4H-quinolizine-3-carboxylate] | 0.5 |  |  |  |  | 0.016 | 1 | 0.016 | 0.016 | 0.5 | 
3 | COc1cc(-c2ccn3c(=O)c(C(=O)[O-])cc(C4CC4)c3c2C)ccc1O.[K+] [Compound 66K salt, potassium 8-(4-hydroxy-3-methoxyphenyl)-1-cyclopropyl-9-methyl-4-oxo-4H-quinolizine-3-carboxylate] | 1 |  |  |  |  |  | 4 | 0.008 | 0.008 | 0.25 | 0.5
4 | CNc1ccc(-c2ccn3c(=O)c(C(=O)[O-])cc(C4CC4)c3c2C)cn1.[K+] [Compound 78K salt, potassium 8-(6-(methylamino)pyridin-3-yl)-1-cyclopropyl-9-methyl-4-oxo-4H-quinolizine-3-carboxylate] | 0.5 |  |  |  |  | 0.064 to 0.125 | 2 | 0.008 | 0.008 |  | 
5 | Cc1c(-c2ccc(O)c(F)c2)ccn2c(=O)c(C(=O)[O-])cc(C3CC3)c12.[K+] [Compound 70K salt, potassium 8-(3-fluoro-4-hydroxyphenyl)-1-cyclopropyl-9-methyl-4-oxo-4H-quinolizine-3-carboxylate] | 0.25 |  |  |  |  | 0.032 | 1 | ≤ 0.004 | ≤ 0.004 | 0.064 | 
6 | Cc1c(-c2ccc3c(cnn3C)c2)ccn2c(=O)c(C(=O)[O-])cc(C3CC3)c12.[K+] [Compound 81K salt, potassium 8-(1-methyl-1H-indazol-5-yl)-1-cyclopropyl-9-methyl-4-oxo-4H-quinolizine-3-carboxylate] | 0.25 |  |  |  |  | 0.064 | 2 | ≤ 0.004 | ≤ 0.004 | 0.064 | 
7 | Cc1c(-c2cccc(O)c2)ccn2c(=O)c(C(=O)[O-])cc(C3CC3)c12.[K+] [Compound 56K salt, potassium 1-cyclopropyl-8-(3-hydroxyphenyl)-9-methyl-4-oxo-4H-quinolizine-3-carboxylate] | 0.25 |  |  |  |  | 0.032 | 2 | 0.008 | 0.008 |  | 
8 | Cc1c(-c2ccc3[nH]nc(C4CC4)c3c2)ccn2c(=O)c(C(=O)[O-])cc(C3CC3)c12.[K+] [Compound 71K salt, potassium 8-(3-cyclopropyl-1H-indazol-5-yl)-1-cyclopropyl-9-methyl-4-oxo-4H-quinolizine-3-carboxylate] | 2 |  |  |  |  |  | > 8 | ≤ 0.004 | ≤ 0.004 |  | 0.5
9 | Cc1c(-c2ccc3sc(N)nc3c2)ccn2c(=O)c(C(=O)[O-])cc(C3CC3)c12.[K+] [Compound 73K salt, potassium 8-(2-aminobenzo[d]thiazol-5-yl)-1-cyclopropyl-9-methyl-4-oxo-4H-quinolizine-3-carboxylate] | 0.5 |  |  |  |  | 0.032 | 2 | ≤ 0.004 | ≤ 0.004 | 0.064 | 
10 | Cc1c(-c2ccc(O)cc2)c(F)cn2c(=O)c(C(=O)[O-])cc(C3CC3)c12.[K+] [Compound 61K salt, potassium 8-(4-hydroxyphenyl)-1-cyclopropyl-7-fluoro-9-methyl-4-oxo-4H-quinolizine-3-carboxylate] | 0.5 |  |  |  |  | 0.032 | 2 |  |  | 0.064 | 
11 | O=C(O)c1cn(C2CC2)c2cc(N3CCNCC3)c(F)cc2c1=O [Ciprofloxacin, reference compound] |  |  |  |  | > 8 |  |  |  |  |  | 

— patent publication US10155021B2, “Antimicrobial 4-oxoquinolizines” (Emergent Product Development Gaithersburg Inc., priority 2011, dated 2018)
